Results published in US5312816A, “Method of combatting osteoporosis in mammalian subjects, utilizing organic boron compounds” (priority 1993, dated 1994).
Counter-ions that a name gives are not always drawn. Like-named read-outs stand apart in the source and are kept apart here.

Key:
Cf1 male mice [1] = experiment: Anti-inflammatory screen, Winter's test, 2% carrageenan hind foot; type: in vivo; conditions: Table XIV; unit inferred; unit assumed
Experimental: Anti-inflammatory Screen- Cf1 - male mice-Winter's Test 2% carrageenan S.C. plantar surface of hind foot, drugs administered @8 or 10 mg/kg I.P. 2X
Winter, C.A., et al, Proc. Soc.

Cf1 male mice [2] = experiment: Writhing reflex, 0.6% acetic acid; type: in vivo; conditions: Table XIV; unit inferred; unit assumed
Experimental: Writhing reflex- Cf1 -male mice- 0.6% acetic acid I.P. drugs administered @20 mg/kg/ I.P. 20 min. later - the # of stretches/10 min.
Hendershot, L.C., et al, J.

Acid phosphatase [3] = experiment: Mouse hepatic lysosomal acid phosphatase activity; type: biochemical; conditions: mouse hepatic, 60 min incubation
Excerpt: (§1) 1. Cf1 male mouse hepatic 10% homogenates in 0.25M sucrose+0.001MEDTA,pH 7.2.
(§2) Lysosomal Enzymes - free and total [triton X-100].
(§3) 1. Acid phosphatase -beta glycerol-3-phosphate, pH 5.0, released IP 720 nm.
Acid phosphatase activity -

Cathepsin D [4] = target: T1, Cathepsin D (Mus musculus, UniProt P18242); experiment: Mouse hepatic lysosomal cathepsin D activity; type: biochemical
T1 construct: azocasein assay pH 5.0
Excerpt: as §1, §2
(§4) 2. Acid Cathepsin D -azocasein-pH 5.0, hydrolytic azo-peptide produce 366 nm.
Cathepsin azo casein activity -

Aryl sulphatase [5] = experiment: Mouse hepatic lysosomal aryl sulphatase activity; type: biochemical; conditions: Table XV, 60 min incubation
Excerpt: as §1, §2
(§5) 3. Aryl sulphatase- p-nitrocatechol sulfate, pH
(§6) 5. 8 p-nitro-catechol product 510 nm.

Trypsin [6] = experiment: Mouse hepatic trypsin activity; type: biochemical; conditions: Table XVI; 60 min incubation; read-out: Mouse Hepatic Trypsin IC50
Excerpt: as §1
1. Trypsin- N-benzoyl-L-arginine ethyl ester pH 8.0, hydrolytic product 253 nm.

Cathepsin D [7] = target: T1, Cathepsin D; experiment: Mouse macrophage cathepsin D activity; type: cell-based; conditions: Table XVII; mouse macrophage, 60 min incubation; read-out: Cathepsin D pH 5.0 IC50
Excerpt: (§7) 3. Mouse macrophages J774A.1 BALB/c
as §4

Acid phosphatase [8] = experiment: Mouse macrophage acid phosphatase activity; type: cell-based; conditions: Table XVII; mouse macrophage, 60 min incubation; read-out: Acid Phosphatase IC50
Aryl sulphatase [9] = experiment: Mouse macrophage aryl sulphatase activity; type: cell-based; conditions: Table XVII; mouse macrophage, 60 min incubation; read-out: Aryl Sulphatase IC50
Trypsin [10] = experiment: Mouse macrophage trypsin (BAEE) activity; type: cell-based; conditions: Table XVIII; mouse macrophage, 60 min incubation; read-out: Trypsin BAEE IC50
Elastase = experiment: Mouse macrophage elastase activity; type: cell-based; conditions: Table XVIII; mouse macrophage, 60 min incubation; read-out: Elastase IC50
Excerpt: Elastase- N-succinyl-L-alanyl-L-alanine-p-nitroanilide, pH 8.0, p-nitro anilide 410 nm.

[11] = test system: Prostaglandin cyclooxygenase; experiment: Mouse macrophage prostaglandin cyclooxygenase activity; type: cell-based; conditions: Table XVIII; mouse macrophage, 60 min incubation; read-out: Prostaglandin Cyclooxygenase IC50
Excerpt: as §7
(§8) Prostaglandin synthetase purified beef seminal vesicle ^3 H arachidonic acid (86.2 Ci/mmol), tlc separation.

Cf1 male mice [12] = experiment: Hot plate tail flick test; type: in vivo; conditions: Table XIV; unit not given
Pg. cyclooxygenase = target: T2, Pg. cyclooxygenase (Sus scrofa, UniProt A0A287ANF9); experiment: Porcine seminal vesicles Pg. cyclooxygenase; type: biochemical
T2 construct: Porcine Seminal; from tissue; the methods section prints beef seminal vesicle

Commercial Collagenase = experiment: Commercial collagenase (type not stated); type: biochemical; conditions: Table XVI, 60 min incubation
Excerpt: 3. Collagenase I, Clostridium histolyticum, bone, skin, tendon, blood vessel, dentine, GI. substrate: rat collagen, N-[propionate-2-3-^3 H] propionylated measured as dpm released.
4. Collagenase II, Clostridium histolyticum, cartilage collagen.

Hydroxyproline = experiment: Serum and urine hydroxyproline levels in vivo; conditions: Cf1 male mice, 8 mg/kg/day I.P. 14 days, N=6
Calcium = experiment: Serum and urine calcium levels in vivo; conditions: Cf1 male mice, 8 mg/kg/day I.P. 14 days, N=6
Phosphorus = experiment: Serum and urine inorganic phosphorus levels in vivo; conditions: Cf1 male mice, 8 mg/kg/day I.P. 14 days, N=6
Prostaglandin synthetase = target: T3, Prostaglandin synthetase (Bos taurus, UniProt O62664); experiment: Prostaglandin synthetase (cyclooxygenase), purified beef seminal vesicle; type: biochemical; conditions: Table IX; commercial enzyme preparation; read-out: Beef Prostaglandin Cyclooxygenase IC50
T3 construct: Prostaglandin synthetase purified beef seminal vesicle; from tissue
T3 sequence (O62664 25-600): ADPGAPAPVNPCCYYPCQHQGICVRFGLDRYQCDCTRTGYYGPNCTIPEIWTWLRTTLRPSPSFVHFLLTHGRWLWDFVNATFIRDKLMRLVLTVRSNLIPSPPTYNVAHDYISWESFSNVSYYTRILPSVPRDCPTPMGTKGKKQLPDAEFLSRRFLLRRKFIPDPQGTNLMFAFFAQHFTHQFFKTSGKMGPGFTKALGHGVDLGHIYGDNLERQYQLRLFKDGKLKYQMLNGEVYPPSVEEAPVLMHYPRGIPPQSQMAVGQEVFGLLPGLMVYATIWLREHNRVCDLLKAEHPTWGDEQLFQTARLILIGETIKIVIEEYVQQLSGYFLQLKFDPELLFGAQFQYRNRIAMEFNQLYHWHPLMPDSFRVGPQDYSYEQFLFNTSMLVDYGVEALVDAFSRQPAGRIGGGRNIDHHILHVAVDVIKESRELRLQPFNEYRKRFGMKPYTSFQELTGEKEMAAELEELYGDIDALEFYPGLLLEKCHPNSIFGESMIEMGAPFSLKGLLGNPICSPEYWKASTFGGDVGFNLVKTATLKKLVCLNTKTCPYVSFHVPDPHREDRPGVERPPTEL
Excerpt: as §8

Cathepsin D [13] = target: T4, Cathepsin D (Homo sapiens, UniProt P07339); experiment: Human osteoporosis fibroblasts cathepsin D (azo-casein) activity; type: cell-based; conditions: Table X; human osteoporosis fibroblasts, DMEM +10% FCS + P/S; read-out: Cathepsin D IC50
T4 construct: azocasein assay pH 5.0
Excerpt: Osteoporosis Human Fibroblast-CRL-1140, Be SA1

Acid phosphatase [14] = experiment: Human osteoporosis fibroblasts acid phosphatase activity; type: cell-based; conditions: read-out: Acid Phosphatase IC50; Table X; human osteoporosis fibroblasts
Excerpt: as §3

Aryl sulphatase [15] = experiment: Human osteoporosis fibroblasts aryl sulphatase activity; type: cell-based; conditions: read-out: Aryl Sulphatase IC50; Table X; human osteoporosis fibroblasts
Excerpt: as §5, §6

Cf1 male mice [16] = experiment: Writhing reflex, 0.6% acetic acid; type: in vivo; conditions: Mus musculus, ip; Table IV; 8 mg/kg I.P.
5'-Lipoxygenase = target: T5, 5'-Lipoxygenase (Homo sapiens, UniProt P09917); experiment: Human leukocyte 5'-lipoxygenase; type: cell-based
T5 construct: human leukocyte tissue culture cells; endogenous in cells; host or cells: Human peripheral leukocytes, RPMI-1788
T5 sequence (P09917 1-674): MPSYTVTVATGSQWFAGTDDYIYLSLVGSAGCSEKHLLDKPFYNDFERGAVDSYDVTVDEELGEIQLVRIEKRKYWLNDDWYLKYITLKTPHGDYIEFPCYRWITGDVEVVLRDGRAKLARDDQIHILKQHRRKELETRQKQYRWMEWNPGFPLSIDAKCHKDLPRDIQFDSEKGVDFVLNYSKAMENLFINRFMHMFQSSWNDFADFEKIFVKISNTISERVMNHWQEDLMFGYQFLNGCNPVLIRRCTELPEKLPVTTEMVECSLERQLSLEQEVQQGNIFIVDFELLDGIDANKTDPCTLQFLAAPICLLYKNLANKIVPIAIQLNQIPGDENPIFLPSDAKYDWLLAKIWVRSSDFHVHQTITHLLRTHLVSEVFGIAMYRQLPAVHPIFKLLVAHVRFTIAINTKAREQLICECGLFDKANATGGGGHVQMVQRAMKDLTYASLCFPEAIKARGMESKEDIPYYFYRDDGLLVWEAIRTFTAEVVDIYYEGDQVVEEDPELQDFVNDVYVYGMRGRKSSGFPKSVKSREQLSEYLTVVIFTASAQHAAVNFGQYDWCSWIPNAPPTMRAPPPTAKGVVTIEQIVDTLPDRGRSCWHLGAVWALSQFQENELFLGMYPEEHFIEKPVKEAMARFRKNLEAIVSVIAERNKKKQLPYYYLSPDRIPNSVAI

Cathepsin = experiment: Human leukocyte cathepsin; type: cell-based; conditions: Table XIX; read-out: Human Leukocyte IC50 (head gives no enzyme; beside Cathepsin D)
Excerpt: 5. Human peripheral leukocytes, RPMI-1788
as §4

[17] = Table XV, mouse hepatic, 60 min incubation, read-out: Cathepsin D IC50

T1 sequence (P18242 65-410): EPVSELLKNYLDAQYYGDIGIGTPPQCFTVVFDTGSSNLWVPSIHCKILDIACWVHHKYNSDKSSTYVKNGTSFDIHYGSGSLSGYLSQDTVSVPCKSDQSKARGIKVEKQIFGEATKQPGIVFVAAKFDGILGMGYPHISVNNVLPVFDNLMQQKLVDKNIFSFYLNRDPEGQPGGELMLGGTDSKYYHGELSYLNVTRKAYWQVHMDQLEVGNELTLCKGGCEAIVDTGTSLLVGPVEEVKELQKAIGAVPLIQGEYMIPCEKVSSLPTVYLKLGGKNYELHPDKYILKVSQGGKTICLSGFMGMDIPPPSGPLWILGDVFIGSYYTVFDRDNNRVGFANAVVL
T2 sequence (A0A287ANF9 25-600): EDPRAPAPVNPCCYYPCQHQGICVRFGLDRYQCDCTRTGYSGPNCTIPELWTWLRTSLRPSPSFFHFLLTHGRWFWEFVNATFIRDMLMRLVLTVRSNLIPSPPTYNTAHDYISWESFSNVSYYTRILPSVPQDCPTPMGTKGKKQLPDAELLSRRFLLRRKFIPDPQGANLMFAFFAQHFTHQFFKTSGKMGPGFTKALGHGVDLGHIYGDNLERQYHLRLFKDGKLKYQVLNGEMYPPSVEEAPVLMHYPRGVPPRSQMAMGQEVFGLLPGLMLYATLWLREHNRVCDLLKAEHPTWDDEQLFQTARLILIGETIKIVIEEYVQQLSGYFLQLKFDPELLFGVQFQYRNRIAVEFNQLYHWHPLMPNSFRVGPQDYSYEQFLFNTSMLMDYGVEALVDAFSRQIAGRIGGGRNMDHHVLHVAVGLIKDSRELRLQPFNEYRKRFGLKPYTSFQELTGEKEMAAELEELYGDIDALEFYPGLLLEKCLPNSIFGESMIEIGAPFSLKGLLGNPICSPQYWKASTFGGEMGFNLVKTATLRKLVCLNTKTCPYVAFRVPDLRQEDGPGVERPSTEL
T4 sequence (P07339 65-412): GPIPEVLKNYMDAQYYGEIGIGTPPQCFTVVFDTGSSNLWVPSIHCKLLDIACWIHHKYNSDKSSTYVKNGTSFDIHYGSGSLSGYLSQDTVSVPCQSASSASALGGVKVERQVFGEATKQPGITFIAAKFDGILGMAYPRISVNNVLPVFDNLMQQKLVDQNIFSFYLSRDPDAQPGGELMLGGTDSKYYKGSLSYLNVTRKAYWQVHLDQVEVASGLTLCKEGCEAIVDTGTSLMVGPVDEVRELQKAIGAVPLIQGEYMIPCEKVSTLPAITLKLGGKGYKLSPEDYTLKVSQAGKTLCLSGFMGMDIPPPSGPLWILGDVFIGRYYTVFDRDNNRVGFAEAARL

SMILES: C[N+](C)(C)[BH2-]C(=O)O [Compound 22, Trimethylamine-carboxyborane, sodium salt]
- Anti-Inflammation Cf1 Mice (Cf1 male mice [1]): 73.4%
- Writhing Reflex Mice (Cf1 male mice [2]): 76.5%
- IC50 (Acid phosphatase [3]; Table XV): 3.56 µM
- IC50 (Cathepsin D [4]; [17]): 6.69 µM
- IC50 (Aryl sulphatase [5]): 5.15 µM
- IC50 (Trypsin [6]): 9.98 µM
- IC50 (Cathepsin D [7]): 1.92 µM
- IC50 (Acid phosphatase [8]): 2 µM
- IC50 (Aryl sulphatase [9]): 1.33 µM
- IC50 (Trypsin [10]): 2.27 µM
- IC50 (Elastase): 7.26 µM
- IC50 [11]: 2.41 µM
- Tail Flick Mice (Cf1 male mice [12]): 101
- IC50 (Pg. cyclooxygenase): 2.4 µM
- IC50 (Commercial Collagenase; sodium salt): 490 µM

SMILES: O=C(O)[BH2-][P+](c1ccccc1)(c1ccccc1)c1ccccc1 [Compound 8, Triphenylphosphine-carboxyborane]
- Hydroxyproline serum (Hydroxyproline): 60.5 % Control
- Hydroxyproline urine (Hydroxyproline): 30.0 % Control
- Calcium urine (Calcium): 83.5 % Control

SMILES: C[N+](C)(C)[BH2-]C(=O)[O-].C[N+](C)(C)[BH2-]C(=O)[O-].C[N+](C)(C)[BH2-]C(=O)[O-].C[N+](C)(C)[BH2-]C(=O)[O-].C[N+](C)(C)[BH2-]C(=O)[O-].C[N+](C)(C)[BH2-]C(=O)[O-].O.O.O.[Cl-].[Fe+3].[Fe+3].[Fe+3].[O-2] [Compound 25]
- Anti-Inflammation Cf1 Mice (Cf1 male mice [1]): 74.2%
- Writhing Reflex Mice (Cf1 male mice [2]): 36.4%
- IC50 (Acid phosphatase [3]; Table XV): 4.14 µM
- IC50 (Cathepsin D [4]; [17]): 8.17 µM
- IC50 (Aryl sulphatase [5]): 2.33 µM
- IC50 (Trypsin [6]): 9.91 µM
- IC50 (Cathepsin D [7]): 3.39 µM
- IC50 (Acid phosphatase [8]): 2.44 µM
- IC50 (Aryl sulphatase [9]): 2.75 µM
- IC50 (Trypsin [10]): 1.81 µM
- IC50 (Elastase): 4.11 µM
- IC50 [11]: 2.08 µM
- Tail Flick Mice (Cf1 male mice [12]): 599
- IC50 (Pg. cyclooxygenase; Table XVI, 60 min incubation): 4.17 µM
- IC50 (Commercial Collagenase): 475 µM

SMILES: CC[NH2+][BH2-]C(=O)O [CH3 CH2 NH2 BH2 COOH]
- Hydroxyproline serum (Hydroxyproline): 89.1 % Control
- Hydroxyproline urine (Hydroxyproline): 69.2 % Control
- Calcium serum (Calcium): 121.0 % Control
- Calcium urine (Calcium): 61.2 % Control
- Phosphorus serum (Phosphorus): 64.3 % Control
- Phosphorus urine (Phosphorus): 78.0 % Control

SMILES: O=C(O)[BH2-][n+]1ccccc1 [Compound 15, Pyridine-carboxyborane]
- IC50 (Acid phosphatase [3]; Table V): 10 µM
- IC50 (Cathepsin D [4]; Table V, mouse hepatic, 60 min incubation, read-out: Cathepsin D IC50): 4.8 µM
- IC50 (Prostaglandin synthetase): 7.6 µM
- IC50 (Cathepsin D [13]): 8.16 µM
- IC50 (Acid phosphatase [14]): 18.3 µM
- IC50 (Aryl sulphatase [15]): 8.16 µM
- response vs control in vivo at 8 mg/kg (Cf1 male mice [16]): 50%

SMILES: CC(C)[Si](OC[C@H]1O[C@@H](n2ccc(N)[n+]([BH2-]C#N)c2=O)C[C@@H]1O[Si](C(C)C)(C(C)C)C(C)C)(C(C)C)C(C)C [Compound 40]
- IC50 (Cathepsin D [4]; read-out: Mouse Hepatic Cathepsin D IC50, Table XIX): 27.2 µM
- IC50 (5'-Lipoxygenase): 3.88 µM
- IC50 (Cathepsin): 6.12 µM
